Source: ChEMBL document CHEMBL1201862, “PubChem BioAssay data set” (2004)
Activity calls are given as the source filed them.

How the values were obtained:
[1] = biological target: DNA repair and recombination protein RAD54-like (Homo sapiens, UniProt Q92698); assay: inhibitors of human RAD54 branch migration, confirmation, biochemical, fluorescence, cherry-picked samples, dose series (AID 651657); type: functional
Melanocortin receptor 4 = Melanocortin receptor 4 (Homo sapiens, UniProt P32245); type: functional, cell-based;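 note: Cell-based assay with luminescence read-out, confirmatory dose-response testing for agonist activity of biased ligands at MC4R; human U2OS cells with tagged receptor and beta-arrestin; potency of agonists that increase receptor coupling to beta-arrestin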
[2] = cytotoxicity toward NIH3T3 fibroblasts, dose response, counter-screen, cell-based, ATP luminescence, mouse fibroblasts (AID 2010); type: functional;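 note: cells exposed to compound for about 90 hours before reading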
[3] = biological target: T1, DNA repair protein RAD52 homolog (Homo sapiens, UniProt P43351); type: functional, biochemical
T1 sequence (P43351 whole entry): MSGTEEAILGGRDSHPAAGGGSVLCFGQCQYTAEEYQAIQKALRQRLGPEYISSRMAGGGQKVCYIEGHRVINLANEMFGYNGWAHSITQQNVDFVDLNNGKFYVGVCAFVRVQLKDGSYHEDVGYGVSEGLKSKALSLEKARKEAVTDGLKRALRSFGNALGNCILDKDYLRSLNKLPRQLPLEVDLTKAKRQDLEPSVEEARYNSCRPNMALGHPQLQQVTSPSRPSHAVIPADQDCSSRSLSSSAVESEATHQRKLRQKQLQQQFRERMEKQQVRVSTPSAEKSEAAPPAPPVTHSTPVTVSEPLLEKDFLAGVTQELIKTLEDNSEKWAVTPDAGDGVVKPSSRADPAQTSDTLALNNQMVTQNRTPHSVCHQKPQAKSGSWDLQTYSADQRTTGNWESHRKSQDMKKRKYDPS

[4] = inhibitors of intracellular T. cruzi replication, confirmation, NIH3T3 host cells, beta-gal luminescence (AID 2044); type: functional, cell-based;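 note: intracellular parasites grown in NIH/3T3 mouse fibroblasts as host cells; luminescent beta-galactosidase reporter signal from transgenic T. cruzi replicating inside host cells; inhibitors lower the luminescence signal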
[5] = biological target: Photoreceptor-specific nuclear receptor (Homo sapiens, UniProt Q9Y5X4); type: functional, cell-based;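 note: CHO-S cells with Gal4-NCOR and VP16-NR2E3 two-hybrid luciferase reporter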
[6] = biological target: T2, Methionyl-tRNA synthetase, putative (Trypanosoma brucei brucei, UniProt Q38C91); type: functional, Trypanosoma brucei brucei strain 927/4 GUTat10.1
T2 sequence (Q38C91 whole entry): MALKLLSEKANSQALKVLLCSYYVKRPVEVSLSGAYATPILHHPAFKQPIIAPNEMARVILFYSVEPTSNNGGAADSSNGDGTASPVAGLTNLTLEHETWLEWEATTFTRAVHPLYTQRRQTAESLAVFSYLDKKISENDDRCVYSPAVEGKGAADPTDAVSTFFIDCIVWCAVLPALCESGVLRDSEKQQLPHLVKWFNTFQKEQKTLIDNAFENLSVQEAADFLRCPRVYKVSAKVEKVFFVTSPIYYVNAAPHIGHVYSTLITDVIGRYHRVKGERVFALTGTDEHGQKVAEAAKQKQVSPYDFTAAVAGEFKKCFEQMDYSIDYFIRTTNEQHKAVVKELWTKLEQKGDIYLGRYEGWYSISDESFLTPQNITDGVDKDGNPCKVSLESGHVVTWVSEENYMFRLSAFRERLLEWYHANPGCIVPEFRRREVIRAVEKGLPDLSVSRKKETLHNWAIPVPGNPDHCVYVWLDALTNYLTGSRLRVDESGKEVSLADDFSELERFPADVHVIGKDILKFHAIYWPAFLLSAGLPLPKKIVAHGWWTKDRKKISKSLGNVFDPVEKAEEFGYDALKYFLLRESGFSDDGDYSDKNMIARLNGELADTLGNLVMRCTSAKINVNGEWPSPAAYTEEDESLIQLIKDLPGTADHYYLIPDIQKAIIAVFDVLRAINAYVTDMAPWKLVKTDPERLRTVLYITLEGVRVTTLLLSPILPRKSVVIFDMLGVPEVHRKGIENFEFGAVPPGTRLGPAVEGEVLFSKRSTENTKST

[7] = biological target: T2, Methionyl-tRNA synthetase, putative; type: functional, Trypanosoma brucei brucei strain 927/4 GUTat10.1; remark: listed apart in the source
[8] = Counterscreen for inhibitors of Trypanosoma brucei methionyl tRNA synthetase (MetRS): Luminescence-based cell-based high throughput dose response assay to identify compounds that are cytotoxic to Jurkat human T lymphocyte cells.; type: functional
[9] = biological target: Heat shock protein HSP 90-alpha (Homo sapiens, UniProt P07900); type: functional, organism-based
[10] = intracellular Trypanosoma cruzi inhibitors in host cells – cell-based, plate reader, cherry-pick samples, set 3, dose response (AID 651818); type: functional;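 note: compounds incubated with infected cells for about four days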
[11] = ARNT/TACC3 interaction disruptors, potency, confirmation, biochemical, AlphaScreen, cherry-picked samples (AID 651703); type: functional, Homo sapiens;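 note: His-tagged ARNT PAS-B domain paired with GST-TACC3 E629A dimer coactivator fragment; potency of inhibitors that break up the complex and lower AlphaScreen signal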
Streptokinase A = biological target: T3, Streptokinase A (Streptococcus pyogenes serotype M1, UniProt P10520); assay: S. pyogenes streptokinase expression inhibitors, potency, dose response, plasminogen activation absorbance, OD405 (AID 1914); type: functional, Streptococcus pyogenes M1 GAS;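 note: secreted streptokinase activity via plasminogen activation per viability signal from cell pellet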
T3 sequence (P10520 whole entry): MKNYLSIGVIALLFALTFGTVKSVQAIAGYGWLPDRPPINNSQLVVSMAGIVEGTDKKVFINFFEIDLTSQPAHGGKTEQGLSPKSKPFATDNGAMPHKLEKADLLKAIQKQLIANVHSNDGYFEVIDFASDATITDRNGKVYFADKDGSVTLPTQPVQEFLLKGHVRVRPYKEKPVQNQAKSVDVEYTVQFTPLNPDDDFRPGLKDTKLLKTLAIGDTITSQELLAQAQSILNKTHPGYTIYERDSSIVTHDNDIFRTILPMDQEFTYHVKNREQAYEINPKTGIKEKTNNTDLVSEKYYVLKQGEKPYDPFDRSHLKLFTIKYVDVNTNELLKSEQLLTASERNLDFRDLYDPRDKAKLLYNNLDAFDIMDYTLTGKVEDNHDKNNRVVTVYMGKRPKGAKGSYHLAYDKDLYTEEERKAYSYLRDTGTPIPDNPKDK

[12] = test system: Streptococcus sp. 'group A'; assay: growth inhibition of control SK(-) GAS strain, dose response, counter-screen for streptokinase expression inhibitor project, luminescence, kanamycin, BacTiterGlo, confirmation (AID 1900); type: functional, organism-based
Streptococcus = assay: Group A Streptococcus viability loss, dose response, counter-screen for streptokinase expression inhibitor project, luminescence, BacTiterGlo (AID 1915); type: functional, organism-based;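 note: potency for reduction of bacterial viability or growth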
[13] = biological target: T4, Apoptotic protease-activating factor 1 (Homo sapiens, UniProt O14727); type: functional
T4 sequence (O14727 whole entry): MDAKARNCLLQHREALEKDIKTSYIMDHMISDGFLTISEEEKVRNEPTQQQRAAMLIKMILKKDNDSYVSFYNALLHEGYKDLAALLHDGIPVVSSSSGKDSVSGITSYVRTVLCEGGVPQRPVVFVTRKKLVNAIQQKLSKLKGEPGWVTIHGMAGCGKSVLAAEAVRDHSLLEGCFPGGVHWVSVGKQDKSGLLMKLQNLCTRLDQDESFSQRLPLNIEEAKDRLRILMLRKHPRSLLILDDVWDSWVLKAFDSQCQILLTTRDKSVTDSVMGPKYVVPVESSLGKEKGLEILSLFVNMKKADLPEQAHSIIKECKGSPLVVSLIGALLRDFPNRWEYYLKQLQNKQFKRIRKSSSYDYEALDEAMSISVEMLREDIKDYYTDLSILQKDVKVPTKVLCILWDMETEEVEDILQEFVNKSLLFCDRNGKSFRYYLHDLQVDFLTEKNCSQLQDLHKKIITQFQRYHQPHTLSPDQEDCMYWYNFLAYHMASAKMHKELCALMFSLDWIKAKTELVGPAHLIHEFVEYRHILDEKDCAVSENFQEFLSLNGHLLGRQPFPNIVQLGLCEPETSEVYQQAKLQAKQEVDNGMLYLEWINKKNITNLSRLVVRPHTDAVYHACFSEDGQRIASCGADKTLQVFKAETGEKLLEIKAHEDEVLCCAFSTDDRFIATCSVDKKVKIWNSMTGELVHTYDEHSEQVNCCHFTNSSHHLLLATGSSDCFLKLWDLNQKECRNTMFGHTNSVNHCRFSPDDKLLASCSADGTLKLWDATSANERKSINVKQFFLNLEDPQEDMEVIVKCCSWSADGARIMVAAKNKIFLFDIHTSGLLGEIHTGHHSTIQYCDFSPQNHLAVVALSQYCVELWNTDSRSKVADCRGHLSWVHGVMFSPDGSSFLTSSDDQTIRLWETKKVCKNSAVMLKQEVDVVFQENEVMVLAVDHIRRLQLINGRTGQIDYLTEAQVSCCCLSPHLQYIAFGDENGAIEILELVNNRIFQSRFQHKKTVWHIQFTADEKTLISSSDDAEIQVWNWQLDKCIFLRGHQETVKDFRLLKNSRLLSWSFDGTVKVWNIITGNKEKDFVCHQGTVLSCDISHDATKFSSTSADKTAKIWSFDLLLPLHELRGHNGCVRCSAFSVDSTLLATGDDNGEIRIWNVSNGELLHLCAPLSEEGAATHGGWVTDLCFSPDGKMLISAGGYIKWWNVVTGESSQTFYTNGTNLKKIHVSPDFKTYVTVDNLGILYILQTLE

Beta Lactamase = Beta Lactamase (Pseudomonas aeruginosa, UniProt Q932Y6); assay: beta-lactamase reporter inhibitor potency, dose response, artefact control for TLR9-MyD88 binding inhibitor project, BLA reporter cells, FRET fluorescence (AID 588341); type: cell-based;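 note: cell based assay in CHO-K1 cells stably expressing beta-lactamase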
CHO = assay: cytotoxicity in TLR9-MyD88 CHO cells, dose response, cytotoxicity control for TLR9-MyD88 binding inhibitor project, cell-based, luminescence (AID 588339); type: functional, hamster; settings: Cricetulus griseus;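 note: CHO cells stably coexpressing TLR9 and MyD88 fusions from primary screen; compound exposure lasted 48 hours before viability readout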
[14] = biological target: Hepatocyte nuclear factor 4-alpha (Homo sapiens, UniProt P41235); type: functional, cell-based;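 note: biochemical luminescence-based dose-response counterscreen measuring inhibition of HNF4 dimerization, run alongside a screen for blockers of ABHD5–perilipin-5 interaction; split luciferase complementation of HNF4 fusion proteins in cell lysate measuring dimerization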
[15] = Luminescence Cell-Based Dose Retest to Confirm Inhibitors of Cancer Stem Cells. [Related pubchem assays (depositor defined):AID2717, AID2721]; type: functional; settings: Homo sapiens
[16] = Fluorescence-based cell-based high throughput dose response assay for inhibitors of the interaction of nucleotide-binding oligomerization domain containing 2 (NOD2) and the receptor-interacting serine-threonine kinase 2 (RIPK2).; type: functional; settings: Homo sapiens
HEK293 [17] = assay: inhibitors of LMP1-driven NF-kB reporter, dose response, cell-based, HEK293, luciferase, cherry-pick (AID 588343); type: functional; settings: Homo sapiens
[18] = inhibitors of PGC1a acetylation in cells, dose response, cell-based, cherry-picked samples (AID 720514); type: functional;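 note: potency may reflect raised or lowered acetylation signal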
Paired box protein Pax-8 = Paired box protein Pax-8 (Homo sapiens, UniProt Q06710); assay: inhibitors of PAX8-driven TPO luciferase reporter, dose response, RMG-I cells, cherry-pick (AID 687027); type: functional, cell-based;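 note: luciferase reporter driven by Pax8 target thyroperoxidase promoter measured by SteadyGlo luminescence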
HEK293 [19] = assay: cells; type: functional, cell-based; settings: Homo sapiens
[20] = biological target: T5, Nuclear receptor subfamily 0 group B member 1 (Homo sapiens, UniProt P51843); assay: Luminescence-based cell-based high throughput dose response assay for inhibitors of the orphan nuclear receptor subfamily 0, group B, member 1 (DAX1; NR0B1). [Related pubchem assays (depositor defined):AID504766, AID504790]; type: functional
T5 sequence (P51843 whole entry): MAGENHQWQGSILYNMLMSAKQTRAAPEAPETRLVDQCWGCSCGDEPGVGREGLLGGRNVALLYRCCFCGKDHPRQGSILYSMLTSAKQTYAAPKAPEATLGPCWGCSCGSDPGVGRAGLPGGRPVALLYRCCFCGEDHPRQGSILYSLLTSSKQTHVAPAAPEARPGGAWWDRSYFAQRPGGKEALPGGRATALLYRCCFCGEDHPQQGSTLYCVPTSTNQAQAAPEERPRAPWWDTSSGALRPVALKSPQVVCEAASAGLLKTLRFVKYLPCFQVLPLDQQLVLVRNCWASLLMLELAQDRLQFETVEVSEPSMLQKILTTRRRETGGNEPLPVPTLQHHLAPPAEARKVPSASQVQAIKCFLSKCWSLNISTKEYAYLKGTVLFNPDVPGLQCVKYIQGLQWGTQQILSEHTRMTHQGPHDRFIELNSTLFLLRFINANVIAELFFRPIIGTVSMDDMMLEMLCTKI

DNA repair and recombination protein RAD54-like, sequence (Q92698 whole entry): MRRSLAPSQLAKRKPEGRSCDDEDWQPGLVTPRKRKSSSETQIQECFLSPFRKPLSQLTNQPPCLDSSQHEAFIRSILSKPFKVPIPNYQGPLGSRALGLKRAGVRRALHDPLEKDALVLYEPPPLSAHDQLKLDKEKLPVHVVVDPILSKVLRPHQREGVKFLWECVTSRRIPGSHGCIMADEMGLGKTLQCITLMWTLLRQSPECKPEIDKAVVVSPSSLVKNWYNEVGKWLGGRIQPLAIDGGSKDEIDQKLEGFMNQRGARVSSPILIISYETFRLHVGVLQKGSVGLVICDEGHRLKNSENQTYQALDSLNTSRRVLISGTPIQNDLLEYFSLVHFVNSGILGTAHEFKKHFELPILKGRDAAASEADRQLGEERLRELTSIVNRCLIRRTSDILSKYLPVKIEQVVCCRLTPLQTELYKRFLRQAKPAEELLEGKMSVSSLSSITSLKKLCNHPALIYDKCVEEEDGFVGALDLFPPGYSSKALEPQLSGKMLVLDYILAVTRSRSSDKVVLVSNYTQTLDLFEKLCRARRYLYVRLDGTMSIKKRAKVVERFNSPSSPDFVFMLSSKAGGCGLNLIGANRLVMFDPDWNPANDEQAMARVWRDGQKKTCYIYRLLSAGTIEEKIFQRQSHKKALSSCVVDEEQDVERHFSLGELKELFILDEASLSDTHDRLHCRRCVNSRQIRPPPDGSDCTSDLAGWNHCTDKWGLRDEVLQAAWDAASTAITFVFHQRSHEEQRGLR
Hepatocyte nuclear factor 4-alpha, sequence (P41235 whole entry, the tested form may be a part): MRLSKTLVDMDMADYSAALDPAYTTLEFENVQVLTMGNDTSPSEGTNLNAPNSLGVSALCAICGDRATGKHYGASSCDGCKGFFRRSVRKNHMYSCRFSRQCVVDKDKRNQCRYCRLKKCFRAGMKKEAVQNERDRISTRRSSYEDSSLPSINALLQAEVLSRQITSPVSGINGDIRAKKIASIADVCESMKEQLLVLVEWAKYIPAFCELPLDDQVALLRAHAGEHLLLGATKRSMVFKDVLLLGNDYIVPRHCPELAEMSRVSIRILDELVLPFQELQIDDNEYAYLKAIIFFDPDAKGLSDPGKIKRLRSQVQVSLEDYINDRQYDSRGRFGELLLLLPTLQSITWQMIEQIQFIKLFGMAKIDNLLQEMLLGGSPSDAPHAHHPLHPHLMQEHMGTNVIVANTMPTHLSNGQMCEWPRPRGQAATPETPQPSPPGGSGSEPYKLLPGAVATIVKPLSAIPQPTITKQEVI
Melanocortin receptor 4, sequence (P32245 whole entry): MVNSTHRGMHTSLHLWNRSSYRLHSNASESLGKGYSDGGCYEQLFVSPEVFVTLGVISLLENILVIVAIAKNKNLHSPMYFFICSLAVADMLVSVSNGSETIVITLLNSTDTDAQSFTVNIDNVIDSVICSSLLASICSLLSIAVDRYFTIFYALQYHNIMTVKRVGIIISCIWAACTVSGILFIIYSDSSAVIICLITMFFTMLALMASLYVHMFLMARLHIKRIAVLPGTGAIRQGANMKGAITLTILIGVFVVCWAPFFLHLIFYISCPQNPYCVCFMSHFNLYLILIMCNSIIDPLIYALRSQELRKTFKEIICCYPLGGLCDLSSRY
Photoreceptor-specific nuclear receptor, sequence (Q9Y5X4 whole entry, the tested form may be a part): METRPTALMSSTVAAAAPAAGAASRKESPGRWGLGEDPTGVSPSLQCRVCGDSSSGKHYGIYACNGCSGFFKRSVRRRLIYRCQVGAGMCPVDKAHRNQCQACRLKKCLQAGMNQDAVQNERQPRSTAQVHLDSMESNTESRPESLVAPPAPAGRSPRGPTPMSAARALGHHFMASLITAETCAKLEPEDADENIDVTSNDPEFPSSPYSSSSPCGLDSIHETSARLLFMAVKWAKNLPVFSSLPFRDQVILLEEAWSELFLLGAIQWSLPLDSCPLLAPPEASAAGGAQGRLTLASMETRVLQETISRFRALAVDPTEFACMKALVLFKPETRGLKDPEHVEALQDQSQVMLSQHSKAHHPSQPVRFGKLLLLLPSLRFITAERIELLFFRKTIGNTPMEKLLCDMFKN
Paired box protein Pax-8, sequence (Q06710 whole entry): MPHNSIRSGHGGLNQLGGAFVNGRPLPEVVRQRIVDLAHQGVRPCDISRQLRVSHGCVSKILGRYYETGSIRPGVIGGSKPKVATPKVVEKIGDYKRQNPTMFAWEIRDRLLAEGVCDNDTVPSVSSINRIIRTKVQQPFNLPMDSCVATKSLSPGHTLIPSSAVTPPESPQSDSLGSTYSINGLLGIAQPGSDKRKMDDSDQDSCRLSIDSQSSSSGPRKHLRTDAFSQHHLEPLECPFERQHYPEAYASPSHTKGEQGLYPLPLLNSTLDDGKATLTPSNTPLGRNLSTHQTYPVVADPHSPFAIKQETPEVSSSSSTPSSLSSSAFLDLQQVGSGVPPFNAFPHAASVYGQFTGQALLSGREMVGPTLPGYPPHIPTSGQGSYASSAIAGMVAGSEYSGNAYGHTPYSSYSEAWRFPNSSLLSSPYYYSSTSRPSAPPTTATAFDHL
Beta Lactamase, sequence (Q932Y6 whole entry, the tested form may be a part): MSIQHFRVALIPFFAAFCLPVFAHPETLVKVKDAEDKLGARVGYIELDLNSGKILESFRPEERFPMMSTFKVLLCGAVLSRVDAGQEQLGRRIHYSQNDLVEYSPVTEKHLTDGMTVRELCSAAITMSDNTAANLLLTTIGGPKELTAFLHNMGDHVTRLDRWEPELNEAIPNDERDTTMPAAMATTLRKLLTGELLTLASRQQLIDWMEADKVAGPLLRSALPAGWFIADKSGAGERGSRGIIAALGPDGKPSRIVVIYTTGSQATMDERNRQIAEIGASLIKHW

CN1CCN(c2nc(-c3ccccn3)nc3ccccc23)CC1
AC50 [1]: 53.8 µM (active)

Cc1ccc2sc(N(CCCN(C)C)C(=O)CN3C(=O)c4ccccc4C3=O)nc2c1C
EC50 (Melanocortin receptor 4): > 89.2 µM (inactive) | EC50 [2]: > 60 µM (not active) | AC50 [3]: 13.8 µM (active) | EC50 [4]: 0.225 µM (active)

COCc1nnc(NC(=O)c2ccc(S(=O)(=O)N(CC(C)C)CC(C)C)cc2)o1
IC50 [5]: 8.81 µM (active)

CN(C)CCCNc1nc2cc(-c3ccccc3)sc2c(=O)n1C
AC50 [1]: 40.3 µM (active) | AC50 [3]: 10.8 µM (active)

Clc1ccc(COC(Cn2ccnc2)c2ccc(Cl)cc2Cl)c(Cl)c1 (centres undefined) [MICONAZOLE]
IC50 [6]: 12.9 µM (inactive) | IC50 [7]: 11.7 µM (inactive) | IC50 [8]: 33 µM (inactive) | AC50 [9]: < 0.195 µM (active)

Cc1ccc(S(=O)(=O)N(C)C[C@@H]2Oc3c(NC(=O)CCCCCC(=O)Nc4ccccc4N)cccc3C(=O)N([C@H](C)CO)C[C@@H]2C)cc1
AC50 [10]: 6.27 µM (active)

O=C(O)CSc1cccc2cccnc12
AC50 [11]: 74.5 µM (active)

Oc1ccc(/C=N/N(Cc2ccccc2)c2ccccc2)cc1
EC50 (Streptokinase A): > 150 µM (not active) | EC50 [12]: 7.47 µM (active) | EC50 (Streptococcus): 9.38 µM (active) | AC50 [9]: 9.12 µM (active)

C[C@@H]1CN([C@H](C)CO)C(=O)Cc2cc(NS(=O)(=O)c3cccs3)ccc2O[C@@H]1CN(C)S(=O)(=O)c1ccc(Cl)cc1
AC50 [10]: 4.11 µM (active)

CC(C)NC(=O)Nc1ccc2c(c1)CC(=O)N([C@H](C)CO)C[C@@H](C)[C@@H](CN(C)Cc1ccc(Oc3ccccc3)cc1)O2
AC50 [11]: 132 µM (active)

COc1ccc2c(c1)Cc1sc(NC(=O)c3ccco3)nc1-2
IC50 [13]: 45.8 µM (active)

O=[N+]([O-])c1ccc(N/N=C/C=C/c2ccco2)cc1
IC50 (Beta Lactamase): 4.19 µM (active) | IC50 (CHO): > 49.8 µM (inactive)

O=C(NCc1ccccc1)C(c1ccccc1F)n1c(=O)c(-c2ccco2)nc2ccccc21 (centres undefined)
IC50 [14]: 2.24 µM (active)

CC12CCC3C(CC=C4CC(O)CCC43C)C1C/C(=C\c1ccccc1F)C2=O (centres undefined)
AC50 [15]: 2.76 µM (active) | EC50 (Melanocortin receptor 4): > 89.2 µM (inactive)

C#CCN(C[C@@H]1[C@@H](OC(=O)NCc2ccccc2F)[C@@H](OC(=O)NCc2ccccc2F)Cn2c(=O)ccc(=O)n21)S(=O)(=O)c1ccc(C)cc1
IC50 [16]: 9.77 µM (active) | IC50 [14]: 8.93 µM (active) | AC50 (HEK293 [17]): 7.17 µM (active) | AC50 [18]: 2.58 µM (active) | AC50 (Paired box protein Pax-8): 5.52 µM (active)

COc1ccc(-c2cc3nc(C)cc(C)n3n2)cc1
IC50 (HEK293 [19]): > 67.5 µM (inactive) | IC50 [20]: > 67.5 µM (inactive)

C=CCN1C=C2C(=O)C(C)(OC(=O)CCC(=O)OC)C(=O)C=C2C=C1C1CC1 (centres undefined)
IC50 [13]: 39.3 µM (active)
